For assay [1], the system named is THP-1 (acute myeloid leukemia, wt FLT3). Put plainly: Calcein AM cytotoxicity assay. Type of assay: cell-based. The conditions noted are these: Homo sapiens, 72 h; THP-1; Calcein AM, three days; read-out: EC50 values (μM) THP-1. In outline:
(§1)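 3-day compound exposure, triplicates, various concs; cells seeded the day before. Read-out: Calcein AM (1 μg/ml final), 1 h, fluorescence ∝ viable cells. Culture 37° C, 5% CO2.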

Assay [2] has as its system MV4-11 (acute myeloid leukemia, FLT3-ITD positive). Put plainly: Calcein AM cytotoxicity assay. To be noted: Homo sapiens, 72 h; MV4-11; Calcein AM, three days after drug addition; read-out: EC50 values (μM) MV4-11. Type of assay: cell-based. The method in brief:
as §1

Assay [3] relates to MOLM-13 (acute myeloid leukemia, FLT3-ITD positive). Put plainly: Calcein AM cytotoxicity assay. Type of assay: cell-based. The conditions noted are these: Homo sapiens, 72 h; MOLM-13; Calcein AM, three days; read-out: EC50 values (μM) MOLM-13. The method in brief: as §1
Assay [4] relates to EOL-1 (eosinophilic leukaemia, carrying the fusion FIP1L1-PDGFRA). Put plainly: Calcein AM cytotoxicity assay. It counts as cell-based. To be noted: Homo sapiens, EOL1, 72 h; EOL-1; Calcein AM, three days; read-out: EC50 values (μM) EOL-1. The method in brief: as §1
Assay [5] deals with K562. Put plainly: Calcein AM cytotoxicity assay. It counts as cell-based. The conditions noted are these: Homo sapiens, 72 h; K562; Calcein AM, three days; read-out: EC50 values (μM) K562. The method in brief: as §1
For assay [6], the system named is MCF-7. Put plainly: Calcein AM cytotoxicity assay. It counts as cell-based. The conditions noted are these: Homo sapiens, MCF7, 72 h; MCF-7; Calcein AM, three days; read-out: EC50 values (μM) MCF-7. The method in brief: as §1
Assay [7] relates to U937 (monocytic leukemia, wt FLT3). Put plainly: Calcein AM cytotoxicity assay. Type of assay: cell-based. To be noted: Homo sapiens, U-937, 72 h; U937; Calcein AM, three days; read-out: EC50 values (μM) U937. The method in brief: as §1
Assay [8] deals with Kasumi-1 (acute myeloid leukemia, KIT mutation Asn822Lys). Put plainly: Calcein AM cytotoxicity assay. Type of assay: cell-based. To be noted: Homo sapiens, 72 h; Kasumi-1; Calcein AM, three days; read-out: EC50 values (μM) Kasumi-1. The method in brief:
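Kasumi-1 cells were grown in RPMI-1640 + 15% FBS, other lines at 37° C., 5% CO2, and seeded the day before compound addition in triplicates at various concentrations. After 3 days, viability was read with Calcein AM (1 μg/ml final, 1 h) as live-cell fluorescence at ex 485/em 538 nm.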

In assay [9] the test system is HL60. Put plainly: Calcein AM cytotoxicity assay. Type of assay: cell-based. The conditions noted are these: Homo sapiens, HL-60, 72 h, three days.
The target in assay [10] is T1, CDK5/p35 (Homo sapiens, UniProt Q00535).
T1 construct: purchased ProQinase GmbH
T1 sequence (Q00535 whole entry): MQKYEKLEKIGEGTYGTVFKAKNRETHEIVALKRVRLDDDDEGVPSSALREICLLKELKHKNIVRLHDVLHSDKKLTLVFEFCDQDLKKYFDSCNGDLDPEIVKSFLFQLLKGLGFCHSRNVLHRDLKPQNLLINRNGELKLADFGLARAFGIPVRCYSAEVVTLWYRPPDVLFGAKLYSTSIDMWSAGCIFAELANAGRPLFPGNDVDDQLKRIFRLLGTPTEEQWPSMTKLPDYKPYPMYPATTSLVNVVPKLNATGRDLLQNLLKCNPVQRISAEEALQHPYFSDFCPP
T1 sequence (Q15078 whole entry partner): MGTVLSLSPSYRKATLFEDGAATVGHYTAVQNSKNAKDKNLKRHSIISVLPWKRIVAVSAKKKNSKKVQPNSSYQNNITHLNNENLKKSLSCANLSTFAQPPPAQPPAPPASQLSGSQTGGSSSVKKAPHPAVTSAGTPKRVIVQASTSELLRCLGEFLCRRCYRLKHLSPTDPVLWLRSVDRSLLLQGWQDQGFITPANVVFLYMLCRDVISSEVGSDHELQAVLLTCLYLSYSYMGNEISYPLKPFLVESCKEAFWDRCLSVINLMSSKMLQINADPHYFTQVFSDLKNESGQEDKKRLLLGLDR
Put plainly: Kinase inhibition assay with [γ-33P]ATP. Type of assay: biochemical. The conditions noted are these: histone H1, 0.15 μM ATP. In outline: (§2)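 Radiometric [γ-33P]ATP assay in HEPES pH 7.5 with Mg2+/Mn2+: CDK1/Cyclin B (Sf9-expressed) and purchased CDK5/p35 with 1 mg/mL histone H1 at 15 and 0.15 μM ATP respectively; FLT3 WT and FLT3-ITD with AGLT substrate at 1 μM ATP. Reactions stopped with H3PO4, spotted onto phosphocellulose and washed.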

Assay [11] deals with T2, FLT3 D835 (Homo sapiens, UniProt P36888).
T2 sequence (P36888 1-993 D835Y): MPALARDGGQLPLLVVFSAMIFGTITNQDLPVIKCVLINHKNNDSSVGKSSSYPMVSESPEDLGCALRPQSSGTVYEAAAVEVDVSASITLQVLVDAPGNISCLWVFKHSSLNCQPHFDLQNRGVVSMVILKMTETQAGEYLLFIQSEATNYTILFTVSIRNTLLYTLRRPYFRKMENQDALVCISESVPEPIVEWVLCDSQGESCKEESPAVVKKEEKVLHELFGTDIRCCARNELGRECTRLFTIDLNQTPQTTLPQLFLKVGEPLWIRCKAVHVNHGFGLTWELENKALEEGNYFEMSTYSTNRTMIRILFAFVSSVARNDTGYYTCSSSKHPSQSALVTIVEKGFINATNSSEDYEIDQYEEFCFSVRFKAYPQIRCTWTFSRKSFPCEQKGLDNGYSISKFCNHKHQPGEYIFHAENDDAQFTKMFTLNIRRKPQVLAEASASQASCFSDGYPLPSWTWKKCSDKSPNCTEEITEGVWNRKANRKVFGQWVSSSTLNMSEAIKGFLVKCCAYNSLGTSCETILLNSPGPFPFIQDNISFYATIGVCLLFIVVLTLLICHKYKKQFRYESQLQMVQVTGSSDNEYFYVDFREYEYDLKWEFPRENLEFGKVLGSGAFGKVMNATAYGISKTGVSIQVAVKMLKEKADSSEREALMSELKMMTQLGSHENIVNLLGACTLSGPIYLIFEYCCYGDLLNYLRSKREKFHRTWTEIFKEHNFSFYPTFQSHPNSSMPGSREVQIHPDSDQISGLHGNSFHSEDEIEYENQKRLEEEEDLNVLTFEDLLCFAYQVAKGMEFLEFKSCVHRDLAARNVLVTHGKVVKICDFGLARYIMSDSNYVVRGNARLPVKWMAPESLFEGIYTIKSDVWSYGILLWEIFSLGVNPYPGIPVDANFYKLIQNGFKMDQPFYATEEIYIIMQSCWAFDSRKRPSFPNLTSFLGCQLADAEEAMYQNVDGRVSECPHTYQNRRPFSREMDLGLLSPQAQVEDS
Put plainly: Kinase inhibition assay with [γ-33P]ATP. It counts as biochemical. The conditions noted are these: AGLT substrate, 1 μM ATP.

The target of assay [12] is T3, CDK2/Cyclin E (Homo sapiens, UniProt P24941).
T3 construct: made in house; host or cells: Sf9 insect cells, baculoviral infection
The assay can be described thus: Kinase inhibition assay with [γ-33P]ATP. Type of assay: biochemical. The conditions noted are these: histone H1, 15 μM ATP; read-out: IC50 values (μM) CDK2. The method in brief:
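Human CDK2/Cyclin E, expressed in baculovirus-infected Sf9 insect cells and purified on a NiNTA column, was assayed with 1 mg/mL histone H1 substrate, 15 μM ATP plus 0.05 μCi [γ-33P]ATP and test compound in 10 μL of buffer (60 mM HEPES-NaOH pH 7.5, 3 mM MgCl2, 3 mM MnCl2, 3 μM Na-orthovanadate, 1.2 mM DTT, PEG20,000). Reactions were quenched with 5 μL 3% H3PO4, spotted onto P-81 phosphocellulose, washed and dried.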

Assay [13] concerns the target T4, FLT3-ITD (Homo sapiens, UniProt P36888).
T4 sequence (P36888 1-993): T2 sequence (P36888 1-993 D835Y) with Y835D
Put plainly: Kinase inhibition assay with [γ-33P]ATP. It counts as biochemical. To be noted: AGLT substrate, 1 μM ATP; read-out: IC50 values (μM) FLT3 ITD. The method in brief:
as §2

The target in assay [14] is T5, CDK1/Cyclin B (Homo sapiens, UniProt P06493).
T5 construct: made in house; host or cells: Sf9 insect cells, baculoviral infection
T5 sequence (P06493 whole entry, species assumed): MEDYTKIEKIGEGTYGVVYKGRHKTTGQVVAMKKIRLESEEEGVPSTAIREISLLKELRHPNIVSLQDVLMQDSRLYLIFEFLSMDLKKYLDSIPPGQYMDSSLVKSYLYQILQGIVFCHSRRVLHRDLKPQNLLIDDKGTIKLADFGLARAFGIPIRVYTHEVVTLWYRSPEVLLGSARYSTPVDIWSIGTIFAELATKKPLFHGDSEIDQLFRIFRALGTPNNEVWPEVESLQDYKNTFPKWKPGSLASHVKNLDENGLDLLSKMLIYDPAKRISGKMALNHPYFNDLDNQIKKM
T5 sequence (P14635 whole entry partner, species assumed): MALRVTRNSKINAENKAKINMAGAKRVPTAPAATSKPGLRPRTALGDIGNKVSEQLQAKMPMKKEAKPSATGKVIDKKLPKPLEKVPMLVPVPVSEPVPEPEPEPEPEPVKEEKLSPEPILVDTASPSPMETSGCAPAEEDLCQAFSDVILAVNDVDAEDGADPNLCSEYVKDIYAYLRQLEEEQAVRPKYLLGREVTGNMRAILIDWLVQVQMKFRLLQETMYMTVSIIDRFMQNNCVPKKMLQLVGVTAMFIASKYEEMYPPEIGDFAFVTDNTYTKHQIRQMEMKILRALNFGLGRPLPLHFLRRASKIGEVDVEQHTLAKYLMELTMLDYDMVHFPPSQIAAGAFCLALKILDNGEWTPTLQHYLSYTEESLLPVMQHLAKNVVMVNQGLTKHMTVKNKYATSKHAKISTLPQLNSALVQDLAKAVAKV
Put plainly: Kinase inhibition assay with [γ-33P]ATP. Type of assay: biochemical. To be noted: histone H1, 15 μM ATP. The method in brief:
as §2

Assay [15] addresses T6, FLT3 WT (Homo sapiens, UniProt P36888).
T6 construct: purchased ProQinase GmbH
T6 sequence (P36888 27-993): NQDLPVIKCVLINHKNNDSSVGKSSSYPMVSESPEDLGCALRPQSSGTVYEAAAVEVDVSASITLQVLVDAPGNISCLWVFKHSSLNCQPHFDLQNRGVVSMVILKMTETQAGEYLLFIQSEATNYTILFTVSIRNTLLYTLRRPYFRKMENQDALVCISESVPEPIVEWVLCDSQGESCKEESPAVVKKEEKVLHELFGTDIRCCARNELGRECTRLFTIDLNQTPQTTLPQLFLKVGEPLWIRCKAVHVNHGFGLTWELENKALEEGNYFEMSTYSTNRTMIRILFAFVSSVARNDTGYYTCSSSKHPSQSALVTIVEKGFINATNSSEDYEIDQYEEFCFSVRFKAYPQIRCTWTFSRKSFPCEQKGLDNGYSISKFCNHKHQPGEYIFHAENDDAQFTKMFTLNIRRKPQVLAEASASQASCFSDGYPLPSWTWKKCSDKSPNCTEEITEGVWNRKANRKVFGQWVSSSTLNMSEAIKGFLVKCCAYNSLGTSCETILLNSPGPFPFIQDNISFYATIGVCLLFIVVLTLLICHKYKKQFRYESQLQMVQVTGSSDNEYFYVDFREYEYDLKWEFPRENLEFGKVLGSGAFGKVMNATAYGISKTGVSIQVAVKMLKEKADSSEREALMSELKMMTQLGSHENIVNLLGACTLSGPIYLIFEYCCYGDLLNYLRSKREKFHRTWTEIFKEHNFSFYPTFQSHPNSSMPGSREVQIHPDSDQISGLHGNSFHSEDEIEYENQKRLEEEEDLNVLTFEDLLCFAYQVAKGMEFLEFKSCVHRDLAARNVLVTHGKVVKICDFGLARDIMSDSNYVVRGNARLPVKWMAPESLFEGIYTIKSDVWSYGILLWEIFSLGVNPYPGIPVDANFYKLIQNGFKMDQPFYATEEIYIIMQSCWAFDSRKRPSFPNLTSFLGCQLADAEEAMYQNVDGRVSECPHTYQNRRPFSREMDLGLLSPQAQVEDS
Put plainly: Kinase inhibition assay with [γ-33P]ATP. Type of assay: biochemical. The conditions noted are these: AGLT substrate, 1 μM ATP. In outline:
as §2

In patent US11028087B2, “2,6-disubstituted-9-cyclopentyl-9H-purines, use thereof as medicaments, and pharmaceutical compositions” (UNIVERZITA PALACKEHO V OLOMOUCI, priority 2017, dated 2021) one finds EC50 and IC50 data, which are given here for three compounds.

Residue numbers refer to the chain shown, from its start.

A word on the EC50: it is the midpoint of the concentration-response curve. In general, IC50 refers to the point on the concentration scale where inhibition reaches its midpoint.

For `NC1CCC(Nc2nc(Nc3ccc(CN4CC5(COC5)C4)nc3)c3ncn(C4CCCC4)c3n2)CC1` (stereo not drawn) [Compound 5], the EC50 in [1] was 0.903 µM; in [2], 0.011 µM; in assay [3], 0.014 µM; in assay [4], 0.019 µM; in assay [5], 0.432 µM; in assay [6], 0.41 µM. Moreover, the EC50 in assay [7] was 0.44 µM; in [8], 0.588 µM; in [9] it was 1.21 µM.

On to `CCN1CC2(C1)CN(Cc1ccc(Nc3nc(NC4CCC(O)CC4)nc4c3ncn4C3CCCC3)cc1)C2` (stereo not drawn) [Compound 8], for which the EC50 in [1] is 2.1 µM; in assay [2], 0.042 µM; in [3] it was 0.056 µM; in [4], 0.049 µM; in assay [5], 0.391 µM; in assay [6], 0.22 µM. The EC50 is 1.35 µM in assay [7], 0.636 µM in assay [8] and 1.42 µM in assay [9].

In the case of `CCN1CC2(C1)CN(Cc1ccc(Nc3nc(NCCCN)nc4c3ncn4C3CCCC3)cc1)C2` [Compound 20], the IC50 is 0.044 µM in assay [10]; 0.004 µM in assay [11]; 0.005 µM in [12]; 0.004 µM in assay [13]; 0.04 µM in [14]; 0.015 µM in assay [15].
